Data reported in patent publication US11078152B2, “Method for resolution of baclofen salts” (Universite de Rouen, priority 2016, dated 2021).

Tests used:
[1] = Determination of the solubility of the racemic Bahma salt in a given solvent at a given temperature; assay type: physicochemical; details: for Solubility 1M HCl: aqueous 1M HCl solution; for Solubility 2M HCl: aqueous 2M HCl solution; for Solubility: n-propanol/water azeotropic mixture; for Solubility Water: pure water
Procedure: Determination of the Solubility
The solubility of a Bahma salt in a given solvent was calculated, for a given temperature and in a given volume of solvent, via the following formula:
[formula] in which mBahma is the mass of the Bahma salt introduced in grams to reach saturation; ρsolvent is the density of the solvent in g.mL^−1; and Vsolvent is the volume of the solvent in mL.
The solubility of the racemic Bahma salt at various temperatures was determined in the n-propanol/water azeotropic mixture (ρ=0.870 g.mL^−1).
The solubility of the racemic Bahma salt at various temperatures was determined in pure water (ρ=1 g.mL^−1), in aqueous 1M HCl solution (ρ=1.017 g.mL^−1) and in aqueous 2M HCl solution (ρ=1.030 g.mL^−1).

[2] = background statement, no test described; cited from earlier work

NCC(CC(=O)O)c1ccc(Cl)cc1.O=C(O)C=CC(=O)O (racemic) [racemic Bahma salt, baclofen hydrogen maleate]
Solubility 1M HCl ([1]; 20° C.): 4.51%
Solubility 1M HCl ([1]; 35° C.): 6.86%
Solubility 1M HCl ([1]; 50° C.): 12.54%
Solubility 2M HCl ([1]; 20° C.): 6.48%
Solubility 2M HCl ([1]; 35° C.): 11.44%
Solubility 2M HCl ([1]; 50° C.): 22.24%
Solubility ([1]; 20° C.): 1.49%
Solubility ([1]; 35° C.): 2.80%
Solubility ([1]; 50° C.): 4.81%
Solubility Water ([1]; 20° C.): 0.75%
Solubility Water ([1]; 35° C.): 1.00%
Solubility Water ([1]; 50° C.): 1.78%

NC[C@H](CC(=O)O)c1ccc(Cl)cc1 [R(−) enantiomer, (R)-4-amino-3-(4-chlorophenyl)butanoic acid]
activity relative to the S(+) enantiomer [2]: three times more active than the S(+) enantiomer
